In brackets after ≈: the same amount, converted by molar mass.
Assays:
[1] = Cytotoxicity (CC50) in H9 cells; type: cell-based, human; settings: human
Method: (§1) The anti-HIV activity was determined by the “Guiding Principles of Anti HIV Drug Unclinical Pharmacodynamics” of SFDA which is tested by technology standard assay according to International Universal Standards and Methods. Where in CC50, EC50 were measured twice and took the average.

[2] = Cytotoxicity (CC50) in C8166 cells; type: cell-based; settings: human
Method: as §1

[3] = tested on: HIV-1IIIB; assay: Anti-HIV activity in H9 cells; type: cell-based; settings: H9 cells; for TI: CC50/EC50; for EC50: Human immunodeficiency virus 1, HIV-1IIIB, read-out: EC50
Method: as §1

[4] = tested on: HIV-1IIIB; assay: Anti-HIV activity in C8166 cells; type: cell-based; settings: C8166 cells; for TI: CC50/EC50; for EC50: Human immunodeficiency virus 1, HIV-1IIIB, read-out: EC50
Method: as §1

| Structure (SMILES) | CC50 ([1]; H9 cells, read-out: CC50) | CC50 [2] | TI [3] | EC50 [3] | TI [4] | EC50 [4] | CC50 [1] |
| --- | --- | --- | --- | --- | --- | --- | --- |
| COc1ccccc1NC(=O)c1c(N)cccc1S(=O)(=O)c1ccc(C(=O)O)cc1 [Compound 77, 4-((3-amino-2-((2-methoxyphenyl)carbamoyl)phenyl)sulfonyl)benzoic acid] | > 200 µg/mL | > 200 µg/mL | – | – | – | – | – |
| Nc1cccc(S(=O)(=O)c2ccc([N+](=O)[O-])cc2)c1C(=O)Nc1ccccc1I [Compound 72, 2-amino-N-(2-iodophenyl)-6-((4-nitrophenyl)sulfonyl)benzamide] | > 200 µg/mL | > 200 µg/mL | – | – | – | – | – |
| COc1ccccc1NC(=O)c1c(NCCN)cccc1S(=O)(=O)c1ccc([N+](=O)[O-])cc1 [Compound 79, 2-((2-aminoethyl)amino)-N-(2-methoxyphenyl)-6-((4-nitrophenyl)sulfonyl)benzamide] | 99.5 µg/mL (≈ 211 µM) | 90.9 µg/mL (≈ 193 µM) | 0.99 | 101 µg/mL (≈ 214 µM) | 0.97 | 93.5 µg/mL (≈ 199 µM) | – |
| COc1cc(N)ccc1NC(=O)c1c(N)cccc1Sc1ccc([N+](=O)[O-])cc1 [Compound 50, 2-amino-N-(4-amino-2-methoxyphenyl)-6-(4-nitrophenylthio)benzamide] | 81.1 µg/mL (≈ 197 µM) | – | 2.87 | 28.3 µg/mL (≈ 68.9 µM) | – | – | – |
| COc1ccccc1NC(=O)c1c(Sc2ccc([N+](=O)[O-])cc2)cccc1N1CCOCC1 [Compound 63, N-(2-methoxyphenyl)-2-morpholino-6-((4-nitrophenyl)thio)benzamide] | > 200 µg/mL | > 200 µg/mL | – | > 200 µg/mL | >3.75 | 53.3 µg/mL (≈ 115 µM) | – |
| COc1ccccc1NC(=O)c1c(Sc2ccc([N+](=O)[O-])cc2)cccc1N1CCNCC1 [Compound 62, N-(2-methoxyphenyl)-2-((4-nitrophenyl)thio)-6-(piperazinyl)benzamide] | 14.2 µg/mL (≈ 30.6 µM) | 10.2 µg/mL (≈ 22.1 µM) | 3.71 | 3.83 µg/mL (≈ 8.24 µM) | 2.99 | 3.43 µg/mL (≈ 7.38 µM) | – |
| Nc1cccc(NC(=O)c2c(N)cccc2Sc2ccc([N+](=O)[O-])cc2)c1 [Compound 49, 2-amino-N-(3-aminophenyl)-6-(4-nitroph-enylthio)benzamide] | > 200 µg/mL | – | 4.82 | 41.5 µg/mL (≈ 109 µM) | – | – | – |
| COc1ccccc1NC(=O)c1c(NS(=O)(=O)c2ccccc2)cccc1S(=O)(=O)c1ccc([N+](=O)[O-])cc1 [Compound 61, N-(2-methoxyphenyl)-2-((4-nitrophenyl)sulfonyl)-6-(phenylsulfonamido)benzamide] | > 200 µg/mL | > 200 µg/mL | – | – | – | – | – |
| COc1ccccc1NC(=O)c1c(N)cccc1S(=O)(=O)c1cc(C)cc(C)c1 [Compound 75, 2-amino-6-((3,5-dimethylphenyl)sulfonyl)-N-(2-methoxyphenyl)benzamide] | > 200 µg/mL | > 200 µg/mL | – | > 200 µg/mL | – | > 200 µg/mL | – |
| COc1ccccc1NC(=O)c1cc(NC(C)=O)ccc1Sc1ccc([N+](=O)[O-])cc1 [Compound 29, 5-acetamido-N-(2-methoxyphenyl)-2-((4-nitrophenyl)thio)benzamide] | 74.6 µg/mL (≈ 171 µM) | 110 µg/mL (≈ 251 µM) | <0.37 | > 200 µg/mL | 1.49 | 73.5 µg/mL (≈ 168 µM) | – |
| Nc1ccccc1NC(=O)c1c(Sc2ccc([N+](=O)[O-])cc2)cccc1[N+](=O)[O-] [Compound 53, N-(2-aminophenyl)-2-nitro-6-(4-nitrophenylthio)benzamide] | > 200 µg/mL | – | >4.58 | 43.7 µg/mL (≈ 106 µM) | – | – | – |
| CNc1cccc(S(=O)(=O)c2ccc([N+](=O)[O-])cc2)c1C(=O)Nc1ccccc1OC [Compound 59, N-(2-methoxyphenyl)-2-(methylamino)-6-((4-nitrophenyl)sulfonyl)benzamide] | – | > 200 µg/mL | – | – | – | – | – |
| COc1ccccc1NC(=O)c1c(NCC(N)=O)cccc1Sc1ccc([N+](=O)[O-])cc1 [Compound 82, 2-((2-amino-2-oxoethyl)amino)-N-(2-methoxyphenyl)-6-((4-nitrophenyl)thio)benzamide] | > 200 µg/mL | > 200 µg/mL | – | – | – | – | – |
| COc1ccccc1NC(=O)c1cc([N+](=O)[O-])ccc1Sc1ccc([N+](=O)[O-])cc1 [Compound 23, N-(2-methoxyphenyl)-5-nitro-2-(4-nitrophenylthio)benzamide] | > 200 µg/mL | > 200 µg/mL | – | > 200 µg/mL | – | > 200 µg/mL | – |
| COc1ccccc1NC(=O)c1c(N)cccc1Sc1cc(C)cc(C)c1 [Compound 74, 2-amino-6-((3,5-dimethylphenyl)thio)-N-(2-methoxyphenyl)benzamide] | > 200 µg/mL | 68.6 µg/mL (≈ 181 µM) | – | > 200 µg/mL | 9.45 | 7.26 µg/mL (≈ 19.2 µM) | – |
| COc1ccc(NC(=O)c2c(N)cccc2Sc2ccc([N+](=O)[O-])cc2)c(OC)c1 [Compound 51, 2-amino-N-(2,4-dimethoxyphenyl)-6-(4-nitrophenylthio)benzamide] | 18.1 µg/mL (≈ 42.5 µM) | – | 0.96 | 18.8 µg/mL (≈ 44.3 µM) | – | – | – |
| COc1ccccc1NC(=O)c1c(N(C)C)cccc1S(=O)(=O)c1ccc([N+](=O)[O-])cc1 [Compound 58, 2-(dimethylamino)-N-(2-methoxyphenyl)-6-((4-nitrophenyl)sulfonyl)benzamide] | > 200 µg/mL | > 200 µg/mL | – | – | – | – | – |
| COc1ccccc1NC(=O)c1c(N)cccc1Sc1ccc(C(=O)O)cc1 [Compound 76, 4-((3-amino-2-((2-methoxyphenyl)carbamoyl)phenyl)thio)benzoic acid] | > 200 µg/mL | > 200 µg/mL | – | – | – | – | – |
| COc1ccccc1NC(=O)c1c(NCCO)cccc1S(=O)(=O)c1ccc([N+](=O)[O-])cc1 [Compound 81, 2-((2-hydroxyethyl)amino)-N-(2-methoxyphenyl)-6-((4-nitrophenyl)sulfonyl)benzamide] | 72.7 µg/mL (≈ 154 µM) | 102 µg/mL (≈ 217 µM) | 0.71 | 102 µg/mL (≈ 216 µM) | 1.15 | 89.1 µg/mL (≈ 189 µM) | – |
| COc1ccccc1NC(=O)c1c(NS(=O)(=O)c2ccccc2)cccc1Sc1ccc([N+](=O)[O-])cc1 [Compound 56, N-(2-methoxyphenyl)-2-(4-nitrophenylthio)-6-(phenylsulfonamido)benzamide] | > 200 µg/mL | > 200 µg/mL | >1.46 | 137 µg/mL (≈ 256 µM) | >8.17 | 24.5 µg/mL (≈ 45.7 µM) | – |
| COc1ccccc1NC(=O)c1c(NCP(=O)(OC(C)C)OC(C)C)cccc1Sc1ccc([N+](=O)[O-])cc1 [Compound 65, diisopropyl(((2-((2-methoxyphenyl)carbamoyl)-3-((4-nitro-phenyl)thio)phenyl)amino)methyl)phosphonate] | 25.4 µg/mL (≈ 44.3 µM) | 18.8 µg/mL (≈ 32.8 µM) | – | – | – | – | – |
| COc1ccccc1NC(=O)c1c(NS(=O)(=O)c2ccc(C)cc2)cccc1Sc1ccc([N+](=O)[O-])cc1 [Compound 57, N-(2-methoxyphenyl)-2-(4-methylphenylsulfonamido)-6-((4-nitrophenyl)thio)benzamide] | > 200 µg/mL | 37.2 µg/mL (≈ 67.8 µM) | >11.90 | 16.8 µg/mL (≈ 30.6 µM) | 2.65 | 14.1 µg/mL (≈ 25.6 µM) | – |
| COc1ccccc1NC(=O)c1c(Sc2ccc([N+](=O)[O-])cc2)cccc1[N+](=O)[O-] [Compound 52, N-(2-methoxyphenyl)-2-nitro-6-(4-nitrophenylthio)benzamide] | > 200 µg/mL | – | – | > 200 µg/mL | – | – | – |
| COc1ccccc1NC(=O)c1c(NCCO)cccc1Sc1ccc([N+](=O)[O-])cc1 [Compound 80, 2-((2-hydroxyethyl)amino)-N-(2-methoxyphenyl)-6-((4-nitrophenyl)thio)benzamide] | 116 µg/mL (≈ 265 µM) | 93.5 µg/mL (≈ 213 µM) | 6.08 | 19.1 µg/mL (≈ 43.6 µM) | 4.81 | 19.4 µg/mL (≈ 44.2 µM) | – |
| CS(=O)(=O)Oc1ccccc1NC(=O)c1c(N)cccc1Sc1ccc([N+](=O)[O-])cc1 [Compound 73, 2-(2-amino-6-((4-nitrophenyl)thio)benzamildo)phenyl methanesulfonate] | > 200 µg/mL | 194 µg/mL | – | > 200 µg/mL | 5.28 | 36.7 µg/mL | – |
| Nc1cccc(Sc2ccc([N+](=O)[O-])cc2)c1C(=O)Nc1ccccc1I [Compound 71, 2-amino-N-(2-iodophenyl)-6-((4-nitrophenyl)thio)benzamide] | > 200 µg/mL | > 200 µg/mL | – | – | – | – | – |
| COc1ccccc1NC(=O)c1cc(C(F)(F)F)ccc1Sc1ccc([N+](=O)[O-])cc1 [Compound 22, N-(2-methoxyphenyl)-2-((4-nitrophenyl)thio)-5-(trifluoromethyl)benzamide] | > 200 µg/mL | – | – | – | – | – | – |
| O=C(O)c1cccc(NC(=O)c2c(Sc3ccc([N+](=O)[O-])cc3)cccc2[N+](=O)[O-])c1 [Compound 54, 3-(2-nitro-6-(4-nitrophenylthio)benzamildo)benzoic acid] | – | – | 1.02 | 83.9 µg/mL (≈ 191 µM) | – | – | 85.8 µg/mL (≈ 195 µM) |
